PMC8922279, “Identification of β-Lactams Active against Mycobacterium tuberculosis by a Consortium of Pharmaceutical Companies and Academic Institutions” (ACS Infectious Diseases, 2022)

Tests used:
[1] = In vitro plasma stability, human plasma; conditions: 37 °C, time point 120 min; for Plasma stability % Remaining, Human: 2 μM
[2] = In vitro plasma stability, SD rat plasma; conditions: 37 °C, time point 120 min; for Plasma stability % Remaining, Rat: 2 μM
[3] = Stability in simulated gastric fluid (SGF); conditions: for SGF Stability, % remaining, 1h / SGF Stability, % remaining, 24h: 10 μM, pH 1.2, room temperature
[4] = In vitro plasma stability, CD-1 mouse plasma; conditions: 37 °C, time point 120 min; for Plasma stability % Remaining, Mouse: 2 μM
[5] = In vitro plasma stability, beagle dog plasma; conditions: for Plasma stability % Remaining, Dog: 2 μM, 37 °C, time point 120 min
[6] = Caco-2 permeability / efflux transporter substrate; conditions: human
Caco-2 cells = test: Caco-2 permeability / efflux transporter substrate; conditions: for Caco-2 Mean Papp A to B / Caco-2 Mean Papp B to A: 3 μM, pH 7.4, 120 min; for Caco-2 Rank Papp / Caco-2 Efflux Ratio / Caco-2 Mean Recovery % A to B / Caco-2 Mean Recovery % B to A / Efflux Transporter Substrate: Caco-2
[7] = In vitro plasma stability, cynomolgus monkey plasma; conditions: for Plasma stability % Remaining, Monkey: 2 μM, 37 °C, time point 120 min
[8] = Stability in fasted simulated intestinal fluid (FaSSIF); conditions: pH 6.5, room temperature; for FaSSIF Stability, % remaining, 6h / FaSSIF Stability, % remaining, 24h: 10 μM
Mtb H37Rv [9] = test: MIC90 against replicating (R) Mtb H37Rv, with or without clavulanate; format: cell-based, Mycobacterium tuberculosis; conditions: Table S4; for Mtb H37Rv R + CLAV (MIC90): clavulanate 4 μg/mL; for Mtb H37Rv R (MIC90): no clavulanate
Mtb H37Rv [10] = test: MIC90 against nonreplicating (NR, 4-stress) Mtb H37Rv, with or without clavulanate; format: cell-based, Mycobacterium tuberculosis; conditions: 4-stress nonreplicating, Table S4; for Mtb H37Rv NR + CLAV (MIC90): clavulanate 4 μg/mL; for Mtb H37Rv NR (MIC90): no clavulanate
E. coli = test: Microbial spectrum, E. coli; format: cell-based, Escherichia coli; conditions: clavulanate 4 μg/mL; Table S4
P. aeruginosa = test: Microbial spectrum, P. aeruginosa; format: cell-based, Pseudomonas aeruginosa; conditions: clavulanate 4 μg/mL; Table S4
S. aureus = test: Microbial spectrum, S. aureus; format: cell-based, Staphylococcus aureus; conditions: clavulanate 4 μg/mL; Table S4
C. albicans = test: Microbial spectrum, C. albicans; format: cell-based, Candida albicans; conditions: no clavulanate; Table S4
plasma proteins [11] = test: Plasma protein binding (equilibrium dialysis), human; conditions: 2 μM
plasma proteins [12] = test: Plasma protein binding (equilibrium dialysis), SD rat; conditions: 2 μM
plasma proteins [13] = test: Plasma protein binding (equilibrium dialysis), beagle dog; conditions: 2 μM
plasma proteins [14] = test: Plasma protein binding (equilibrium dialysis), CD-1 mouse; conditions: 2 μM
plasma proteins [15] = test: Plasma protein binding (equilibrium dialysis), cynomolgus monkey; conditions: 2 μM
[16] = simulated gastric fluid (SGF), pH 1.2

Compound | Caco-2 Rank Papp (Caco-2 cells) | Mtb H37Rv R + CLAV (MIC90) (Mtb H37Rv [9]) | Mtb H37Rv R (MIC90) (Mtb H37Rv [9]) | Mtb H37Rv NR + CLAV (MIC90) (Mtb H37Rv [10]) | Mtb H37Rv NR (MIC90) (Mtb H37Rv [10]) | E.coli R + CLAV (MIC90) (E. coli) | P.aeruginosa R + CLAV (MIC90) (P. aeruginosa) | S.aureus R + CLAV (MIC90) (S. aureus) | C.albicans R (MIC90) (C. albicans) | Plasma stability % Remaining, Human [1] | Plasma stability % Remaining, Rat [2] | SGF Stability, % remaining, 1h [3] | SGF Stability, % remaining, 24h [3] | Plasma stability % Remaining, Mouse [4] | Plasma stability % Remaining, Dog [5] | Caco-2 Mean Papp A to B (Caco-2 cells) | Caco-2 Mean Papp B to A (Caco-2 cells) | Caco-2 Mean Recovery % A to B (Caco-2 cells) | Caco-2 Mean Recovery % B to A (Caco-2 cells) | Plasma stability % Remaining, Monkey [7] | other results
C[C@@H](O)[C@H]1C(=O)N2C(C(=O)O)=C(S[C@@H]3CN[C@H](C(=O)Nc4cccc(C(=O)O)c4)C3)[C@H](C)[C@H]12 [Ertapenem, reference compound] | Low | – | – | – | – | – | – | – | – | – | – | – | – | – | – | – | – | – | – | – | remaining at 2 h, 2 μM ([1]; human, plasma, Plasma stability % Remaining): 77.5%; remaining at 2 h, 2 μM ([2]; SD, rat, plasma, Plasma stability % Remaining): 69.1%; remaining at 1 h, 10 μM [3, 16]: 0%; remaining at 24 h, 10 μM [3, 16]: 0%; remaining at 2 h, 2 μM ([4]; male, CD-1, mouse, plasma, Plasma stability % Remaining, Mouse): 74.2%; remaining at 2 h, 2 μM ([5]; beagle, dog, plasma): 70.7%; Papp A→B at 120 min, 3 μM ([6]; Caco-2, pH 7.4): < 0.23 ×10⁻⁶ cm/s; Papp B→A at 120 min, 3 μM ([6]; Caco-2, pH 7.4): < 0.21 ×10⁻⁶ cm/s; recovery at 120 min, 3 μM ([6]; Caco-2, pH 7.4, Caco-2 Mean Recovery % A to B): < 116%; recovery at 120 min, 3 μM ([6]; Caco-2, pH 7.4, Caco-2 Mean Recovery % B to A): < 112%; remaining at 2 h, 2 μM ([7]; monkey, plasma): 115%; remaining at 6 h, 10 μM ([8]; fasted simulated intestinal fluid (FaSSIF), pH 6.5, FaSSIF Stability, % remaining, 6h): 86.8%; remaining at 24 h, 10 μM ([8]; fasted simulated intestinal fluid (FaSSIF), pH 6.5, FaSSIF Stability, % remaining, 24h): 85.8%
CC=CC(=O)OCC1=C(C(=O)O)N2C(=O)[C@@H](NC(=O)C(=NO)c3cccs3)[C@H]2SC1 [TBBL-0000058] | Low | 1.1 µM | 8.7 µM | 84.6 µM | 56.8 µM | 41.8 µM | > 100 µM | 0.5 µM | > 100 µM | 35.0% | 60.9% | 94.94% | 57.36% | 67.6% | 81.2% | < 0.38 10-6 cm/s | 0.63 10-6 cm/s | < 98.97% | 111.16% | 22.0% | Caco-2 Efflux Ratio (Caco-2 cells): > 1.68; Efflux Transporter Substrate (Caco-2 cells): Poor or no; FaSSIF Stability, % remaining, 6h [8]: 114.21%; FaSSIF Stability, % remaining, 24h [8]: 66.32%
CC(=O)OCC1=C(C(=O)O)N2C(=O)[C@@H](NC(=O)CSc3ccncc3)[C@H]2SC1 [TBBL-0000063] | Low | 1.9 µM | 13.1 µM | > 100 µM | > 100 µM | > 100 µM | > 100 µM | 0.8 µM | > 100 µM | – | – | 87.31% | 27.14% | – | – | < 0.41 10-6 cm/s | < 0.37 10-6 cm/s | < 87.73% | < 102.87% | – | % bound to plasma, Human (plasma proteins [11]): 38.7%; % bound to plasma, SD Rat (plasma proteins [12]): 42.4%; FaSSIF Stability, % remaining, 6h [8]: 102.47%; FaSSIF Stability, % remaining, 24h [8]: 62%; % bound to plasma, Beagle Dog (plasma proteins [13]): 27.8%; % bound to plasma, CD-1 Mouse (plasma proteins [14]): 14.7%; % bound to plasma, Cynomolgus Monkey (plasma proteins [15]): 0.0%
Cn1nnnc1SCC1=C(C(=O)O)N2C(=O)[C@@H](NC(=O)Cc3ccc(C4=NCCCN4)cc3)[C@H]2SC1 [TBBL-0000309] | Low | 0.7 µM | 29.6 µM | > 100 µM | > 100 µM | 20.6 µM | > 100 µM | 1.8 µM | > 100 µM | 79.0% | 79.8% | 103.51% | 60.13% | 68.8% | 77.8% | 0.18 10-6 cm/s | 0.38 10-6 cm/s | 99.65% | 104.93% | 104.7% | Caco-2 Efflux Ratio (Caco-2 cells): 2.12; Efflux Transporter Substrate (Caco-2 cells): Likely; % bound to plasma, Human (plasma proteins [11]): 24.6%; % bound to plasma, SD Rat (plasma proteins [12]): 38.2%; FaSSIF Stability, % remaining, 6h [8]: 95.78%; FaSSIF Stability, % remaining, 24h [8]: 77.15%; % bound to plasma, Beagle Dog (plasma proteins [13]): 0.0%; % bound to plasma, CD-1 Mouse (plasma proteins [14]): 4.1%; % bound to plasma, Cynomolgus Monkey (plasma proteins [15]): 29.4%
CCc1nnc(SCC2=C(C(=O)O)N3C(=O)[C@@H](NC(=O)Cc4ccc(C5=NCCCN5)cc4)[C@H]3SC2)s1 [TBBL-0000317] | – | 1.1 µM | 22.3 µM | > 100 µM | > 100 µM | > 100 µM | > 100 µM | 2.1 µM | > 100 µM | 17.4% | 2.4% | 90.44% | 79.32% | 13.3% | 31.5% | – | – | – | – | 13.4% | FaSSIF Stability, % remaining, 6h [8]: 94.96%; FaSSIF Stability, % remaining, 24h [8]: 90.38%
Cn1c(SCC2=C(C(=O)O)N3C(=O)[C@@H](NC(=O)Cc4ccccc4CN)[C@H]3SC2)nnc(O)c1=O [TBBL-0000460] | Low | 2 µM | 5.4 µM | 85.6 µM | 69.3 µM | 13.4 µM | > 200 µM | 4.6 µM | > 200 µM | 90.4% | 92.4% | 102.88% | 85.68% | 88.8% | 73.7% | 0.16 10-6 cm/s | 0.24 10-6 cm/s | 97.79% | 106.35% | 25.6% | Caco-2 Efflux Ratio (Caco-2 cells): 1.52; Efflux Transporter Substrate (Caco-2 cells): Poor or no; % bound to plasma, Human (plasma proteins [11]): 15.9%; % bound to plasma, SD Rat (plasma proteins [12]): 29.0%; FaSSIF Stability, % remaining, 6h [8]: 96.2%; FaSSIF Stability, % remaining, 24h [8]: 86.61%; % bound to plasma, Beagle Dog (plasma proteins [13]): 0.0%; % bound to plasma, CD-1 Mouse (plasma proteins [14]): 16.1%
CON=C(C(=O)N[C@@H]1C(=O)N2C(C(=O)O)=C(CSc3cccc[n+]3[O-])CS[C@H]12)c1csc(N)n1 [TBBL-0000539] | Low | 1.9 µM | 2 µM | 4.6 µM | 4.7 µM | 13.1 µM | > 100 µM | 17.3 µM | > 100 µM | 83.4% | 98.2% | 104.45% | 90.77% | 92.4% | 79.7% | < 0.10 10-6 cm/s | 0.31 10-6 cm/s | < 96.40% | 105.53% | 120.8% | Caco-2 Efflux Ratio (Caco-2 cells): > 3.03; Efflux Transporter Substrate (Caco-2 cells): Likely; % bound to plasma, Human (plasma proteins [11]): 56.9%; % bound to plasma, SD Rat (plasma proteins [12]): 61.3%; % bound to plasma, Beagle Dog (plasma proteins [13]): 5.2%; % bound to plasma, CD-1 Mouse (plasma proteins [14]): 20.9%; % bound to plasma, Cynomolgus Monkey (plasma proteins [15]): 84.3%
